Experimental data taken from PubChem BioAssay (NCI).
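Test compounds were applied to cells in 96-well plates for 48 hours at 5 doses. GI50 is the concentration that inhibits growth by half. At the TGI there is no net growth.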

Assays:
Test in all cases: growth of human tumour cells (NCI), 48 h
SF-268 CNS = test system: SF-268 CNS
M14 melanoma = test system: M14 melanoma
K-562 leukemia = test system: K-562 leukemia
SK-MEL-2 melanoma = test system: SK-MEL-2 melanoma
HT29 colon = test system: HT29 colon
OVCAR-8 ovarian = test system: OVCAR-8 ovarian
OVCAR-4 ovarian = test system: OVCAR-4 ovarian
SK-MEL-28 melanoma = test system: SK-MEL-28 melanoma
COLO 205 colon = test system: COLO 205 colon
MDA-MB-231 breast = test system: MDA-MB-231 breast

SMILES	GI50 (SF-268 CNS) [µM]	TGI (SF-268 CNS) [µM]	GI50 (M14 melanoma) [µM]	TGI (M14 melanoma) [µM]	GI50 (K-562 leukemia) [µM]	TGI (K-562 leukemia) [µM]	GI50 (SK-MEL-2 melanoma) [µM]	TGI (SK-MEL-2 melanoma) [µM]	GI50 (HT29 colon) [µM]	TGI (HT29 colon) [µM]	GI50 (OVCAR-8 ovarian) [µM]	TGI (OVCAR-8 ovarian) [µM]	GI50 (OVCAR-4 ovarian) [µM]	TGI (OVCAR-4 ovarian) [µM]	GI50 (SK-MEL-28 melanoma) [µM]	TGI (SK-MEL-28 melanoma) [µM]	GI50 (COLO 205 colon) [µM]	TGI (COLO 205 colon) [µM]	GI50 (MDA-MB-231 breast) [µM]	TGI (MDA-MB-231 breast) [µM]
COc1ccc(OC)c2c1[nH]c(=O)c1c3ccccc3cn21	1.42	3.04	1.79	3.37	0.692	3.12	2	4.01	0.813	2.54	1.26	3.36	1.38	3.1	1.92	3.38	1.2	2.79	1.4	2.86
NC(=S)N/N=C/C(=O)O	> 100	> 100	> 100	> 100	27	> 100	> 100	> 100	> 100	> 100	> 100	> 100	37.5	> 100	> 100	> 100	> 100	> 100	81.6	> 100
CCN1CCN(C(=O)[C@@]2(C)CC[C@]3(C)CC[C@]4(C)C(=CC(=O)[C@@H]5[C@@]6(C)CC[C@H](OC7C[C@@H](O)[C@@H](O)C(C)O7)C(C)(C)[C@@H]6CC[C@]54C)[C@@H]3C2)CC1 (some centres undefined)	1.6	6.18	1.04	2.19	1.08	2.66	8.95	17.9	1.08	2.59	1.62	6.82	1.27	3.08	1.06	2.25	9.13	20.6	1.13	2.59
c1ccc(-c2nnc(-c3ccccn3)s2)nc1	> 100	> 100	> 100	> 100	> 100	> 100	> 100	> 100	> 100	> 100	> 100	> 100	> 100	> 100	> 100	> 100	> 100	> 100	72.5	> 100
C=C1C(=O)OC2CC(C)C(C(CC(C)=O)OC(C)=O)=CCC12 (centres undefined)	–	74.5	–	36.9	–	17.9	–	40.8	–	22	–	> 51.8	–	34.2	–	24.1	–	21.2	–	27.2
COc1ccc(Sc2[nH]c(C(C)=O)c3ccccc23)cc1	12.9	27.1	11.7	25.1	2.65	14.7	13	31.2	15.4	30.7	16.4	36.8	13.3	32	13.5	26.3	0.174	0.398	11.4	29.5
CCOC(=O)C1=CN(C)C=C(C(=O)OCC)C1c1cc(Br)c(OCC)c(OC)c1	> 100	> 100	> 100	> 100	> 100	> 100	–	–	34.5	> 100	> 100	> 100	12.5	> 100	> 100	> 100	68.7	> 100	45.4	> 100
Cc1ccc(S(=O)(=O)Nc2ccccc2C=O)cc1	–	–	–	54.7	–	60.8	–	30.4	–	49.3	–	34.1	–	> 100	–	64.7	–	33.2	–	41
CC(=O)CCn1c(=S)sc2ccccc21	–	> 100	–	> 100	–	–	–	> 100	–	> 100	–	> 100	–	> 100	–	> 100	–	> 100	–	> 100
O=CCC1CCCCC1	–	> 100	–	> 100	–	> 100	–	> 100	–	–	–	–	–	> 100	–	> 100	–	> 100	–	> 100
CSC1=Nc2c(c(C)c(C)n2COC(CO)CO)C2=NC(=O)C(C)N12 (centres undefined)	> 100	> 100	–	–	> 100	> 100	> 100	> 100	> 100	> 100	> 100	> 100	> 100	> 100	> 100	> 100	> 100	> 100	> 100	> 100
COC(=O)C1c2cc3c(cc2C(OC2OC(C)C(OC)C(C)(OC)C2OC)CC1(C)O)C(=O)c1c(O)cc2c(c1C3=O)OC1OC2(C)C(O)C([N+](C)(C)[O-])C1O (centres undefined)	–	> 21.4	–	3.64	–	–	–	0.641	–	–	–	4.22	–	> 100	–	–	–	0.293	–	4.74
